Legend:
[1] = Plasma pharmacokinetics in patients; format: in vivo, human; conditions: for AUC / Cmax / half-life: human, plasma
HSP70 [2] = test: Soluble HSP70 protein in patient plasma by ELISA; format: in vivo, human
HSP70 [3] = test: HSP70 protein in patient PBMCs by western blot; format: in vivo, human; conditions: after onalespib alone (C0D4), all dose levels
[4] = IV, days 1, 4, 8, 11 of 21-day cycle, with AT7519 21 mg/m^2 (DL2)
HSP90 = conditions: cited from earlier work
[5] = twice-weekly schedule, monotherapy; cited from earlier work
[6] = All dose levels, C0D1, onalespib alone, n = 27, geometric mean
[7] = All dose levels, C1D1, onalespib with AT7519, n = 24, geometric mean
[8] = All dose levels, C1D11, onalespib with AT7519, n = 16, geometric mean
[9] = DL1, C0D1, onalespib 40 mg/m^2 IV alone, n = 5, geometric mean
[10] = DL1, C1D1, onalespib 40 mg/m^2 with AT7519 21 mg/m^2, n = 4, geometric mean
[11] = DL1, C1D11, onalespib 40 mg/m^2 with AT7519 21 mg/m^2, n = 2, geometric mean
[12] = DL2, C0D1, onalespib 80 mg/m^2 IV alone, n = 17, geometric mean
[13] = DL2, C1D1, onalespib 80 mg/m^2 with AT7519 21 mg/m^2, n = 16, geometric mean
[14] = DL2, C1D11, onalespib 80 mg/m^2 with AT7519 21 mg/m^2, n = 11, geometric mean
[15] = DL3, C0D1, onalespib 80 mg/m^2 IV alone, n = 5, geometric mean
[16] = DL3, C1D1, onalespib 80 mg/m^2 with AT7519 27 mg/m^2, n = 4, geometric mean
[17] = DL3, C1D11, onalespib 80 mg/m^2 with AT7519 27 mg/m^2, n = 3, geometric mean

CC(C)c1cc(C(=O)N2Cc3ccc(CN4CCN(C)CC4)cc3C2)c(O)cc1O [onalespib, (2,4-dihydroxy-5-isopropylphenyl)-[5-(4-methylpiperazin-1-ylmethyl)-1,3-dihydroisoindol-2-yl]methanone]
CL [1, 6]: 52.2 L/h/m^2
Vz [1, 6]: 754 L/m^2
CL [1, 7]: 58.4 L/h/m^2
Vz [1, 7]: 725 L/m^2
CL [1, 8]: 61.0 L/h/m^2
Vz [1, 8]: 706 L/m^2
CL [1, 9]: 51.3 L/h/m^2
Vz [1, 9]: 742 L/m^2
CL [1, 10]: 64.4 L/h/m^2
Vz [1, 10]: 891 L/m^2
CL [1, 11]: 65.6 L/h/m^2
Vz [1, 11]: 855 L/m^2
CL [1, 12]: 53.8 L/h/m^2
Vz [1, 12]: 804 L/m^2
CL [1, 13]: 57.5 L/h/m^2
Vz [1, 13]: 721 L/m^2
CL [1, 14]: 62.5 L/h/m^2
Vz [1, 14]: 743 L/m^2
CL [1, 15]: 47.7 L/h/m^2
Vz [1, 15]: 617 L/m^2
CL [1, 16]: 56.7 L/h/m^2
Vz [1, 16]: 606 L/m^2
CL [1, 17]: 53.1 L/h/m^2
Vz [1, 17]: 516 L/m^2
AUC ([1]; intravenous, AUC, DL1, C1D1, onalespib 40 mg/m^2 with AT7519 21 mg/m^2, n = 4, geometric mean): 621 ng·h/mL
AUC ([1]; intravenous, AUC, DL1, C1D11, onalespib 40 mg/m^2 with AT7519 21 mg/m^2, n = 2, geometric mean): 610 ng·h/mL
AUC ([1]; intravenous, AUC, DL2, C1D1, onalespib 80 mg/m^2 with AT7519 21 mg/m^2, n = 16, geometric mean): 1390 ng·h/mL
AUC ([1]; intravenous, AUC, DL2, C1D11, onalespib 80 mg/m^2 with AT7519 21 mg/m^2, n = 11, geometric mean): 1280 ng·h/mL
AUC ([1]; intravenous, AUC, DL3, C1D1, onalespib 80 mg/m^2 with AT7519 27 mg/m^2, n = 4, geometric mean): 1410 ng·h/mL
AUC ([1]; intravenous, AUC, DL3, C1D11, onalespib 80 mg/m^2 with AT7519 27 mg/m^2, n = 3, geometric mean): 1510 ng·h/mL
Cmax ([1]; intravenous, Cmax, DL1, C1D1, onalespib 40 mg/m^2 with AT7519 21 mg/m^2, n = 4, geometric mean): 146 ng/mL
Cmax ([1]; intravenous, Cmax, DL1, C1D11, onalespib 40 mg/m^2 with AT7519 21 mg/m^2, n = 2, geometric mean): 155 ng/mL
Cmax ([1]; intravenous, Cmax, DL2, C1D1, onalespib 80 mg/m^2 with AT7519 21 mg/m^2, n = 16, geometric mean): 331 ng/mL
Cmax ([1]; intravenous, Cmax, DL2, C1D11, onalespib 80 mg/m^2 with AT7519 21 mg/m^2, n = 11, geometric mean): 355 ng/mL
Cmax ([1]; intravenous, Cmax, DL3, C1D1, onalespib 80 mg/m^2 with AT7519 27 mg/m^2, n = 4, geometric mean): 331 ng/mL
Cmax ([1]; intravenous, Cmax, DL3, C1D11, onalespib 80 mg/m^2 with AT7519 27 mg/m^2, n = 3, geometric mean): 424 ng/mL
half-life ([1]; intravenous, t1/2,z, All dose levels, C0D1, onalespib alone, n = 27, geometric mean): 10 h
half-life ([1]; intravenous, t1/2,z, DL1, C1D1, onalespib 40 mg/m^2 with AT7519 21 mg/m^2, n = 4, geometric mean): 9.6 h
half-life ([1]; intravenous, t1/2,z, DL1, C1D11, onalespib 40 mg/m^2 with AT7519 21 mg/m^2, n = 2, geometric mean): 9.4 h
half-life ([1]; intravenous, t1/2,z, DL2, C1D1, onalespib 80 mg/m^2 with AT7519 21 mg/m^2, n = 16, geometric mean): 8.7 h
half-life ([1]; intravenous, t1/2,z, DL2, C1D11, onalespib 80 mg/m^2 with AT7519 21 mg/m^2, n = 11, geometric mean): 8.2 h
half-life ([1]; intravenous, t1/2,z, DL3, C1D1, onalespib 80 mg/m^2 with AT7519 27 mg/m^2, n = 4, geometric mean): 7.4 h
half-life ([1]; intravenous, t1/2,z, DL3, C1D11, onalespib 80 mg/m^2 with AT7519 27 mg/m^2, n = 3, geometric mean): 6.7 h
AUC ([1]; iv, 40 mg/m2, AUC, DL1, C0D1, onalespib 40 mg/m^2 IV alone, n = 5, geometric mean): 780 ng·h/mL
Cmax ([1]; iv, 40 mg/m2, Cmax, DL1, C0D1, onalespib 40 mg/m^2 IV alone, n = 5, geometric mean): 193 ng/mL
half-life ([1]; iv, 40 mg/m2, t1/2,z, DL1, C0D1, onalespib 40 mg/m^2 IV alone, n = 5, geometric mean): 10 h
AUC ([1]; iv, 80 mg/m2, AUC, DL2, C0D1, onalespib 80 mg/m^2 IV alone, n = 17, geometric mean): 1490 ng·h/mL
AUC ([1]; iv, 80 mg/m2, AUC, DL3, C0D1, onalespib 80 mg/m^2 IV alone, n = 5, geometric mean): 1680 ng·h/mL
Cmax ([1]; iv, 80 mg/m2, Cmax, DL2, C0D1, onalespib 80 mg/m^2 IV alone, n = 17, geometric mean): 349 ng/mL
Cmax ([1]; iv, 80 mg/m2, Cmax, DL3, C0D1, onalespib 80 mg/m^2 IV alone, n = 5, geometric mean): 487 ng/mL
half-life ([1]; iv, 80 mg/m2, t1/2,z, DL2, C0D1, onalespib 80 mg/m^2 IV alone, n = 17, geometric mean): 10.4 h
half-life ([1]; iv, 80 mg/m2, t1/2,z, DL3, C0D1, onalespib 80 mg/m^2 IV alone, n = 5, geometric mean): 9 h
HSP70 protein expression in plasma (HSP70 [2]; after onalespib alone (C0D4), all dose levels): Increased HSP70 protein expression
Soluble HSP70 expression in plasma (HSP70 [2]; patient with palate adenocarcinoma (confirmed PR), after onalespib alone): increase in soluble HSP70 expression
HSP70 protein expression in PBMCs (HSP70 [3]): Increased HSP70 protein expression
Maximally tolerated dose (MTD) of onalespib in the combination [4]: 80 mg/m^2
IC50 (HSP90): 0.7 nM
RP2D as individual agent [5]: 120 mg/m^2
